{"source": "PubChem BioAssay AID1963829", "about": "(Molecular Pharmacology Branch, DTP, NCI, 2024)", "tested_on": "935938-334-R-J1-PDC complex spheroid viability", "experiment": "Anticancer human tumor 935938-334-R-J1-PDC patient-derived small intestine adenocarcinoma cell line growth inhibition [POLQ]", "settings": "for IC50: curve of first compound; for viability, T/C: stronger effect = lower value", "description": "Multicellular complex tumor spheroid response to Polymerase (POL) inhibitors (novobiocin, ART-558, RP6685) in combination with a variety of drugs and investigational agents in selected tumor cell lines\nThe POL inhibitors (novobiocin, ART-558, and RP6685) were evaluated both individually and in combination with standard of care and investigational anticancer small molecules within a complex spheroid model of solid tumors. . Complex spheroids include a stromal component modeled by human endothelial cells (HUVEC) and fibroblasts modeled by human mesenchymal stem cells (MSCs). The concentration ranges selected for each drug and investigational agent were based upon clinically achievable concentrations if the clinical Cmax of the agent was known.\nCompounds. The drugs and investigational agents: novobiocin (NSC847541), ART-558 (NSC835418), RP-6685 (NSC848927), peposertib (NSC802822), ceralasertib (NSC780249), elimusertib (NSC800525), camonsertib (NSC841442), AZD-1390 (NSC803789), olaparib (NSC753686), talazoparib (NSC767125), rucaparib (NSC756644), sotorasib (NSC818433), MRTX-1133 (NSC836407), SN-38 (NSC673596), topotecan (NSC609699), epotoside (NSC141540), doxorubicin (NSC123127), gemcitabine (NSC613327), 5-fluorouracil (NSC19893), paclitaxel (NSC125973), vemurafenib (NSC761431), MSA-2 (NSC828583), SN-011 (NSC837082), adavosertib (NSC754352), prexasertib (NSC758257), carboplatin (NSC241240) and oxaliplatin (NSC266046), were obtained from the National Cancer Institute (NCI) Developmental Therapeutics Program Chemical Repository (21). The FDA-approved anticancer drug set is available from the Developmental Therapeutics Program at https://dtp.cancer.gov/organization/dscb/obtaining/. […] The stock solutions were prepared in dimethyl sulfoxide (DMSO, Sigma-Aldrich, St. Louis, MO, cat. D2650), except for the platinum compounds which were prepared in saline (Quality Biological, Gaithersburg, MD, cat. 114-055-101), at 800-fold the tested concentration and stored at -70 degrees C prior to their use. All drugs and investigational agents were tested over a range starting from a high concentration at or near the clinical Cmax and decreasing in half-log increments. If the clinical Cmax for an agent had not been determined, the highest concentration tested was 10 microM, except for SN-38, which was tested at a high concentration of 1 microM.\nCell Culture. All cells were maintained in an incubator at 37 degrees C and 5% CO2 with 95% humidity. The PDC lines were cultured according to standard operating procedures established by the NCI PDMR (https://pdmr.cancer.gov). Table 3 of the manuscript, lists the cell lines along with the number of the three cell types plated to form the mct-spheroids and media for tumor cell growth. After thawing, all PDC lines, except 997537-175-T-J1-PDC and 415267-285-R-J2-PDC, were cultured in Matrigel-coated flasks prepared with a working solution of 1X Ham's F-12 nutrient mix, without supplementation (Thermo Fisher Scientific, cat. 11765054), 100 U/mL penicillin-streptomycin (Thermo Fisher Scientific, cat. 15140122), and 2.5% Matrigel (Corning Inc., Corning, NY, cat. 354248) for the first three passages. The two PDC lines 997537-175-T-J1-PDC and 415267-285-R-J2-PDC were cultured on uncoated flasks. The 857933-349-R-J2-PDC line was cultured in 6C/Colon 1B media containing advanced DMEM/F-12 (Thermo Fisher Scientific, cat. 12634028), 10 mM HEPES (Thermo Fisher Scientific, cat. 15630080), 1X GlutaMAX supplement (Thermo Fisher Scientific, cat. 35050061), 0.1 mg/mL primocin (InvivoGen, San Diego, CA, cat. ant-pm-2), 10% defined fetal bovine serum, heat inactivated (HyClone Laboratories Inc., Logan, UT, cat. SH30070.03HI), 50% L-WRN conditioned media (ATCC, cat. CRL-3276), 1.25 mM N-Acetyl-L-cysteine (Sigma-Aldrich, cat. A9165), 10 mM nicotinamide (Sigma-Aldrich, cat. N0636), 1X B-27 supplement (Thermo Fisher Scientific, cat. 17504044), 1X N-2 supplement (Thermo Fisher Scientific, cat. […]", "data": [{"molecule": "CC(=O)O[C@H]1C(=O)[C@@]2(C)[C@H]([C@H](OC(=O)c3ccccc3)[C@]3(O)C[C@H](OC(=O)[C@H](O)[C@@H](NC(=O)c4ccccc4)c4ccccc4)C(C)=C1C3(C)C)[C@]1(OC(C)=O)CO[C@@H]1C[C@@H]2O", "note": "+ Cc1cccc(N(C)C(=O)C2C(O)CCN2c2nc(C)cc(C(F)(F)F)c2C#N)c1;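 further: spheroids exposed to drugs for seven days before viability read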;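 on viability, T/C: 100% = DMSO vehicle control wells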", "values": [{"measurement": "IC50", "setting": "second compound 0.0316 µM", "result": "< 9.49", "unit": "nM"}, {"measurement": "IC50", "setting": "second compound 0.1 µM", "result": "< 9.49", "unit": "nM"}, {"measurement": "IC50", "setting": "second compound 0.316 µM", "result": "< 9.49", "unit": "nM"}, {"measurement": "IC50", "setting": "second compound 1 µM", "result": "< 9.49", "unit": "nM"}, {"measurement": "IC50", "setting": "second compound 3.16 µM", "result": "< 9.49", "unit": "nM"}, {"measurement": "IC50", "setting": "second compound 10 µM", "result": "< 9.49", "unit": "nM"}, {"measurement": "viability, T/C", "setting": "second compound 0.0316 µM, first compound 0.00949 µM", "result": 35.9, "unit": "%"}, {"measurement": "viability, T/C", "setting": "second compound 0.0316 µM, first compound 0.03 µM", "result": 21.7, "unit": "%"}, {"measurement": "viability, T/C", "setting": "second compound 0.0316 µM, first compound 0.0949 µM", "result": 16.1, "unit": "%"}, {"measurement": "viability, T/C", "setting": "second compound 0.0316 µM, first compound 0.3 µM", "result": 15.5, "unit": "%"}, {"measurement": "viability, T/C", "setting": "second compound 0.0316 µM, first compound 0.949 µM", "result": 19.6, "unit": "%"}, {"measurement": "viability, T/C", "setting": "second compound 0.0316 µM, first compound 3 µM", "result": 18.6, "unit": "%"}, {"measurement": "viability, T/C", "setting": "second compound 0.1 µM, first compound 0.00949 µM", "result": 38.3, "unit": "%"}, {"measurement": "viability, T/C", "setting": "second compound 0.1 µM, first compound 0.03 µM", "result": 20.5, "unit": "%"}, {"measurement": "viability, T/C", "setting": "second compound 0.1 µM, first compound 0.0949 µM", "result": 13.9, "unit": "%"}, {"measurement": "viability, T/C", "setting": "second compound 0.1 µM, first compound 0.3 µM", "result": 13.2, "unit": "%"}, {"measurement": "viability, T/C", "setting": "second compound 0.1 µM, first compound 0.949 µM", "result": 19.7, "unit": "%"}, {"measurement": "viability, T/C", "setting": "second compound 0.1 µM, first compound 3 µM", "result": 15.4, "unit": "%"}, {"measurement": "viability, T/C", "setting": "second compound 0.316 µM, first compound 0.00949 µM", "result": 35.3, "unit": "%"}, {"measurement": "viability, T/C", "setting": "second compound 0.316 µM, first compound 0.03 µM", "result": 21.7, "unit": "%"}, {"measurement": "viability, T/C", "setting": "second compound 0.316 µM, first compound 0.0949 µM", "result": 16.7, "unit": "%"}, {"measurement": "viability, T/C", "setting": "second compound 0.316 µM, first compound 0.3 µM", "result": 19, "unit": "%"}, {"measurement": "viability, T/C", "setting": "second compound 0.316 µM, first compound 0.949 µM", "result": 21.5, "unit": "%"}, {"measurement": "viability, T/C", "setting": "second compound 0.316 µM, first compound 3 µM", "result": 16, "unit": "%"}, {"measurement": "viability, T/C", "setting": "second compound 1 µM, first compound 0.00949 µM", "result": 34.2, "unit": "%"}, {"measurement": "viability, T/C", "setting": "second compound 1 µM, first compound 0.03 µM", "result": 19.4, "unit": "%"}, {"measurement": "viability, T/C", "setting": "second compound 1 µM, first compound 0.0949 µM", "result": 15.6, "unit": "%"}, {"measurement": "viability, T/C", "setting": "second compound 1 µM, first compound 0.3 µM", "result": 16.9, "unit": "%"}, {"measurement": "viability, T/C", "setting": "second compound 1 µM, first compound 0.949 µM", "result": 18.6, "unit": "%"}, {"measurement": "viability, T/C", "setting": "second compound 1 µM, first compound 3 µM", "result": 16, "unit": "%"}, {"measurement": "viability, T/C", "setting": "second compound 3.16 µM, first compound 0.00949 µM", "result": 38.3, "unit": "%"}, {"measurement": "viability, T/C", "setting": "second compound 3.16 µM, first compound 0.03 µM", "result": 17.8, "unit": "%"}, {"measurement": "viability, T/C", "setting": "second compound 3.16 µM, first compound 0.0949 µM", "result": 15.4, "unit": "%"}, {"measurement": "viability, T/C", "setting": "second compound 3.16 µM, first compound 0.3 µM", "result": 16, "unit": "%"}, {"measurement": "viability, T/C", "setting": "second compound 3.16 µM, first compound 0.949 µM", "result": 19.2, "unit": "%"}, {"measurement": "viability, T/C", "setting": "second compound 3.16 µM, first compound 3 µM", "result": 15.8, "unit": "%"}, {"measurement": "viability, T/C", "setting": "second compound 10 µM, first compound 0.00949 µM", "result": 31.6, "unit": "%"}, {"measurement": "viability, T/C", "setting": "second compound 10 µM, first compound 0.03 µM", "result": 17.8, "unit": "%"}, {"measurement": "viability, T/C", "setting": "second compound 10 µM, first compound 0.0949 µM", "result": 12.4, "unit": "%"}, {"measurement": "viability, T/C", "setting": "second compound 10 µM, first compound 0.3 µM", "result": 14.9, "unit": "%"}, {"measurement": "viability, T/C", "setting": "second compound 10 µM, first compound 0.949 µM", "result": 18.1, "unit": "%"}, {"measurement": "viability, T/C", "setting": "second compound 10 µM, first compound 3 µM", "result": 14.4, "unit": "%"}]}]}
